Read-outs that look alike come from different tables or passages of the source.
Columns and labels:
[1] = system: HBV (HepG2.117 cell line, inducibly HBV producing); test: Anti-HBV activity: intracellular HBV DNA by real-time PCR in HepG2.117 cells after 3 days of treatment; format: cell-based, hepatitis B virus
In short: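 Antiviral effect is expressed through intracellular HBV DNA levels, determined by real-time PCR with a virus-specific probe. These levels were measured after 3 days of treatment with compound dilutions, in HepG2.117 cells induced to replicate HBV.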

in vitro = format: cell-based; conditions: human, HepG2 or HepG2.117 cells, ATPlite, mean value
In short: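 Luminescent ATP quantitation served as the viability endpoint following a 3- or 4-day incubation with test compounds.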

[2] = Hepatitis B virus, HepG2.117, 72 h, HepG2.117 cells, 3 days of treatment, intracellular HBV DNA by real-time PCR; mean value; read-out: EC50 (μM, mean value)
[3] = 3-days incubation (unmarked values)
[4] = Hepatitis B virus, HepG2.117, 72 h, HepG2.117 cells, intracellular HBV DNA by real-time PCR, 3 days of treatment, mean value; read-out: EC50 (μM, mean value)
[5] = 3-days incubation (not marked with *)

Row | SMILES | EC50 [1, 2] [µM] | CC50 at 4 days (in vitro; 4-days incubation (values marked with *)) [µM] | CC50 at 3 days (in vitro; [3]) [µM] | EC50 [1, 4] [µM] | CC50 at 3 days (in vitro; [5]) [µM]
1 | COc1ccccc1-n1c(NCc2ccccc2)nc2c(c1=O)CCN(C(=O)c1ccc(Cl)c(Cl)c1)C2 [Compound C10, 2-(benzylamino)-7-(3,4-dichlorobenzoyl)-3-(2-methoxyphenyl)-5,6,7,8-tetrahydropyrido[3,4-d]pyrimidin-4(3H)-one] | 6.21 | > 50 |  |  | 
2 | COc1ccc(CNc2nc3c(c(=O)n2-c2ccc(F)c(C#N)c2)CCN(C(=O)c2ccc(Cl)c(Cl)c2)C3)cc1 [Compound C77, 5-[7-(3,4-dichlorobenzoyl)-2-{[(4-methoxyphenyl)methyl]amino}-4-oxo-5,6,7,8-tetrahydropyrido[3,4-d]pyrimidin-3(4H)-yl]-2-fluorobenzonitrile] | 1.58 |  | > 50 |  | 
3 | CNC(=O)c1ccc(-n2c(N[C@H]3CCOc4ccccc43)nc3c(c2=O)C[C@@H](C)N(C(=O)c2ccc(Cl)c(Cl)c2)C3)cc1 (single isomer, unassigned) [Compound C526b] |  |  |  | 5.42 | 16.3
4 | CC(=O)Nc1ccc(-n2c(NC(C)C)nc3c(c2=O)C[C@@H](C)N(C(=O)c2ccc(Cl)c(Cl)c2)C3)cc1 [Compound C409] |  |  |  | 0.11 | > 50
5 | CC(C)Nc1nc2c(c(=O)n1-c1ccc(-c3cscn3)cc1)CCN(C(=O)c1ccc(Cl)c(Cl)c1)C2 [Compound C170, 7-(3,4-dichlorobenzoyl)-2-[(propan-2-yl)amino]-3-[4-(1,3-thiazol-4-yl)phenyl]-5,6,7,8-tetrahydropyrido[3,4-d]pyrimidin-4(3H)-one] | 0.53 |  | > 50 |  | 
6 | CNC(=O)c1ccc(-n2c(NC(C)C)nc3c(c2=O)C[C@@H](C)N(C(=O)c2ccc(C)c(C(F)(F)F)c2)C3)cc1 [Compound C585] |  |  |  | 0.1 | > 50
7 | CNC(=O)c1ncc(-n2c(NC)nc3c(c2=O)C[C@@H](C)N(C(=O)c2ccc(Cl)c(Cl)c2)C3)cn1 [Compound C327, 5-[(6R)-7-(3,4-dichlorobenzoyl)-6-methyl-2-(methylamino)-4-oxo-5,6,7,8-tetrahydropyrido[3,4-d]pyrimidin-3(4H)-yl]-N-methylpyrimidine-2-carboxamide] | 5.15 |  | > 50 |  | 
8 | CNC(=O)c1ccc(-n2c(N[C@@H](C)c3ccc(C(F)(F)F)cc3)nc3c(c2=O)C[C@@H](C)N(C(=O)c2ccc(Cl)c(Cl)c2)C3)cn1 [Compound C533] |  |  |  | 0.11 | > 50
9 | CC(C)Nc1nc2c(c(=O)n1-c1ccc(-c3ccnnc3)cc1)CCN(C(=O)c1ccc(Cl)c(Cl)c1)C2 [Compound C177, 7-(3,4-dichlorobenzoyl)-2-[(propan-2-yl)amino]-3-[4-(pyridazin-4-yl)phenyl]-5,6,7,8-tetrahydropyrido[3,4-d]pyrimidin-4(3H)-one] | 0.26 |  | 18.2 |  | 
10 | COc1ccc(CNc2nc3c(c(=O)n2-c2ccc(S(C)(=O)=O)nc2)CCN(C(=O)c2ccc(Cl)c(Cl)c2)C3)cc1 [Compound C102, 7-(3,4-dichlorobenzoyl)-3-[6-(methanesulfonyl)pyridin-3-yl]-2-{[(4-methoxyphenyl)methyl]amino}-5,6,7,8-tetrahydropyrido[3,4-d]pyrimidin-4(3H)-one] | 0.39 |  | > 50 |  | 
11 | CC[C@H](C)Oc1nc2c(c(=O)n1-c1ccc(C(=O)NC)cc1)C[C@@H](C)N(C(=O)c1ccc(Cl)c(Cl)c1)C2 [Compound C398] |  |  |  | 0.1 | 25.3
12 | CC(C)Nc1nc2c(c(=O)n1-c1ccc(S(C)(=O)=O)cc1)CCN(C(=O)c1ccc(Cl)c(Cl)n1)C2 [Compound C223, 7-(5,6-dichloropyridine-2-carbonyl)-3-[4-(methanesulfonyl)phenyl]-2-[(propan-2-yl)amino]-5,6,7,8-tetrahydropyrido[3,4-d]pyrimidin-4(3H)-one] | > 10 |  | > 50 |  | 
13 | CNC(=O)c1ccc(-n2c(NC(C)C)nc3c(c2=O)C[C@@H](C)N(C(=O)c2cc4c(Br)c(F)ccc4[nH]2)C3)cc1 [Compound C572] |  |  |  | 0.01 | 14.6
14 | CNC(=O)c1ccc(-n2c(N[C@@H](C)c3ccccc3F)nc3c(c2=O)C[C@@H](C)N(C(=O)c2ccc(Cl)c(Cl)c2)C3)cc1 [Compound C316, 4-[(6R)-7-(3,4-dichlorobenzoyl)-2-{[(1S)-1-(2-fluorophenyl)ethyl]amino}-6-methyl-4-oxo-5,6,7,8-tetrahydropyrido[3,4-d]pyrimidin-3(4H)-yl]-N-methylbenzamide] | 0.13 |  | 27.8 |  | 
15 | COc1ccc(CNc2nc3c(c(=O)n2Cc2ccccc2)CCN(C(=O)c2ccc(Cl)c(Cl)c2)C3)cc1 [Compound C41, 3-benzyl-7-(3,4-dichlorobenzoyl)-2-{[(4-methoxyphenyl)methyl]amino}-5,6,7,8-tetrahydropyrido[3,4-d]pyrimidin-4(3H)-one] | 8.7 |  | > 50 |  | 
16 | C[C@@H]1Cc2c(nc(NCc3cscn3)n(-c3ccc(S(C)(=O)=O)cc3)c2=O)CN1C(=O)c1ccc(Cl)c(Cl)c1 [Compound C146, (6R)-7-(3,4-dichlorobenzoyl)-3-[4-(methanesulfonyl)phenyl]-6-methyl-2-{[(1,3-thiazol-4-yl)methyl]amino}-5,6,7,8-tetrahydropyrido[3,4-d]pyrimidin-4(3H)-one] | 1.95 |  | > 50 |  | 
17 | CNC(=O)c1ccc(-n2c(NC(C)C)nc3c(c2=O)C[C@@H](C)N(C(=O)c2ccc(Cl)c(C(F)(F)F)c2)C3)cc1Cl [Compound C642] |  |  |  | 0.04 | > 50
18 | CC(C)NC(=O)c1ccc(-n2c(NC(C)C)nc3c(c2=O)C[C@@H](C)N(C(=O)c2ccc(Cl)c(Cl)c2)C3)cc1 [Compound C178, 4-[(6R)-7-(3,4-dichlorobenzoyl)-6-methyl-4-oxo-2-[(propan-2-yl)amino]-5,6,7,8-tetrahydropyrido[3,4-d]pyrimidin-3(4H)-yl]-N-(propan-2-yl)benzamide] | 0.04 |  | > 50 |  | 
19 | CNC(=O)c1ccc(-n2c(NCc3nc(-c4ccccc4)n[nH]3)nc3c(c2=O)C[C@@H](C)N(C(=O)c2ccc(Cl)c(Cl)c2)C3)cc1 [Compound C486] |  |  |  | 17.3 | > 50
20 | CC(C)Nc1nc2c(c(=O)n1-c1cccc(-c3cn[nH]n3)c1)C[C@@H](C)N(C(=O)c1ccc(Cl)c(Cl)c1)C2 [Compound C448] |  |  |  | 0.12 | 27.9
21 | CCc1cc(C(=O)NC)ccc1-n1c(NC(C)C)nc2c(c1=O)C[C@@H](C)N(C(=O)c1ccc(Cl)c(Cl)c1)C2 (single isomer, unassigned) [Compound C383a] |  |  |  | 0.32 | > 50
22 | CNC(=O)c1ccc(-n2c(NC(C)C)nc3c(c2=O)C[C@@H](C)N(C(=O)c2ccc(Br)c(F)c2OC)C3)cc1 [Compound C512] |  |  |  | 1.11 | > 50
23 | CC(C)Nc1nc2c(c(=O)n1-c1ccc(C(=O)NC3CC3)cc1)C[C@@H](C)N(C(=O)c1ccc(Cl)c(C(F)(F)F)c1)C2 [Compound C654] |  |  |  | 0.03 | > 50
24 | CNC(=O)c1ccc(-n2c(NC(C)C)nc3c(c2=O)C[C@@H](C)N(C(=O)c2ccc(Cl)c(Cl)c2)C3)cc1OC [Compound C317, 4-[(6R)-7-(3,4-dichlorobenzoyl)-6-methyl-4-oxo-2-[(propan-2-yl)amino]-5,6,7,8-tetrahydropyrido[3,4-d]pyrimidin-3(4H)-yl]-2-methoxy-N-methylbenzamide] | 0.14 |  | > 50 |  | 

Source: US20230091047A1 (priority 2019, published 2023)
